Source: patent publication US10588892B2, “Pharmaceutical composition comprising sacubitril and valsartan” (priority 2017, dated 2020)

Assay: Stability of polymorphic forms towards relative humidity
Type: physicochemical
Conditions: for stability at low relative humidity: relative humidity below 40%, temperatures between 15 and 30° C.
Experimental: Changes in humidity have less impact on the valsartan disodium form 2 as compared to the prior art form 1. […] By using valsartan disodium form 2 and by preparing the composition in an environment with relative humidity below 40%, at temperatures between 15 and 30° C., formation of the co-crystal is completely avoided. Any polymorphic form of sacubitril sodium can be used in accordance with the present invention. Preferably, the polymorphic form of sacubitril sodium is, like valsartan disodium form 2, very stable at relative humidity below […], at temperatures between 15 and 30° C. Particularly preferred polymorphic forms of sacubitril sodium to be used in a composition comprising a physical mixture with valsartan disodium form 2 are sacubitril sodium form 1 and form 2. Sacubitril sodium form 1 has an X-ray powder diffraction pattern comprising characteristic peaks at the following 2 theta (±0.2) angles: 3.14°, 6.25°, 11.97°, 12.73°, 13.78°, 16.50°, 18.35°, 19.93°, 21.56°, 23.75°, 26.20°, measured using a Cu Kα radiation. Sacubitril sodium form 2 has an X-ray powder diffraction pattern comprising characteristic peaks at the following 2 theta (±0.2) angles: 5.26°, 10.52°, 10.92°, 14.78°, 16.96°, 17.17°, 17.51°, 19.92°, 20.40°, 20.81°, 22.23°, measured using a Cu Kα radiation. […] The most preferred polymorphic form of sacubitril sodium to be used with valsartan disodium form 2 in a composition in accordance with the present invention is form 1.

SMILES | stability at low relative humidity | impact of changes in humidity compared with prior art form 1 | stability compared with prior art form 1 (example 11 of WO2002006253)
CCOC(=O)[C@H](C)C[C@@H](Cc1ccc(-c2ccccc2)cc1)NC(=O)CCC(=O)O [Sacubitril sodium form 1, sacubitril sodium] | stable compounds | – | –
CCCCC(=O)N(Cc1ccc(-c2ccccc2-c2nnn[nH]2)cc1)[C@H](C(=O)O)C(C)C [valsartan disodium form 2, valsartan disodium] | particularly stable | less impact | more stable
